{"source": "ChEMBL document CHEMBL5465560", "about": "“Selectivity Literature for EUbOPEN Chemogenomic Library” (2024)", "key": {"[1]": {"target": "Protein arginine N-methyltransferase 1 (Homo sapiens, UniProt Q99873)", "sequence (Q99873 whole entry, looked up)": "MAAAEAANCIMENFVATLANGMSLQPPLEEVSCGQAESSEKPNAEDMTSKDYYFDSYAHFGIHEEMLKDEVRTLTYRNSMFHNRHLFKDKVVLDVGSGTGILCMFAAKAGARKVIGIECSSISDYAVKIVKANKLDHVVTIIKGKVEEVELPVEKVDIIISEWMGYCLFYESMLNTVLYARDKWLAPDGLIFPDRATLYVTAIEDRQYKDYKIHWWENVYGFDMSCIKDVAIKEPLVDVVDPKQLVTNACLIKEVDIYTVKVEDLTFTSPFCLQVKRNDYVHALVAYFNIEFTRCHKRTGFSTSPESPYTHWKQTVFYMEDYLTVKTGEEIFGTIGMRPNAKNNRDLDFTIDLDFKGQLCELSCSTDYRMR", "assay": "Selectivity interaction (Methyltransferase screen (radiometric assays, panel of 8 PRMTs, 21 protein lysine methyltransferases, 3 DNA methyltransferases, and one RNA methyltransferase)) EUB0000271b PRMT1"}, "[2]": {"target": "Mitogen-activated protein kinase 7 (Homo sapiens) (UniProt Q13164)", "sequence (Q13164 2-816 limits assumed)": "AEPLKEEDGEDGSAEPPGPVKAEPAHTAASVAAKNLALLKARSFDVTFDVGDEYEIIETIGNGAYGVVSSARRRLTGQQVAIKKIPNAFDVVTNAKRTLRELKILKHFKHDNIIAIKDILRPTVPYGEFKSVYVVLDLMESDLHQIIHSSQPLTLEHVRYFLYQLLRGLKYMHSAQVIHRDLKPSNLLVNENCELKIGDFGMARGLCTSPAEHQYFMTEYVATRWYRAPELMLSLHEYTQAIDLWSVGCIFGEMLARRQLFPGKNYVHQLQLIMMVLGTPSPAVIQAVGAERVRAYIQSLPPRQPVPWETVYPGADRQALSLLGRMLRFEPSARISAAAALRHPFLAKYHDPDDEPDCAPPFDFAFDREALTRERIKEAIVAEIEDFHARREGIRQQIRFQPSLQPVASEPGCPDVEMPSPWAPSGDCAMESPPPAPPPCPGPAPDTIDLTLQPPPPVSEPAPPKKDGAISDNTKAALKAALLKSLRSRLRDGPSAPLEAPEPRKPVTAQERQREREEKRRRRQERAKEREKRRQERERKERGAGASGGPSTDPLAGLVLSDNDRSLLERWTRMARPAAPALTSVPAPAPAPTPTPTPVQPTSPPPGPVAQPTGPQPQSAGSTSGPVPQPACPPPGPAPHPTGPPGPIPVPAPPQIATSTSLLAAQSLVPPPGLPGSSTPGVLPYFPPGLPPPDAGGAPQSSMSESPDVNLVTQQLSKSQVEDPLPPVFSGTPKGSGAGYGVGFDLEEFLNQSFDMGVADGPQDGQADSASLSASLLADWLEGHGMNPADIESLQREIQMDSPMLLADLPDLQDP", "assay": "Selectivity interaction (Ambit KINOMEscan and KiNATiv profiling in Jurkat cells) EUB0000090b MAPK7", "format": "cell-based", "details": "at 1 µM"}, "[3]": {"system": "Hepatocyte growth factor receptor (Homo sapiens), P08581 [M1250T]", "sequence (P08581 whole entry M1250T)": "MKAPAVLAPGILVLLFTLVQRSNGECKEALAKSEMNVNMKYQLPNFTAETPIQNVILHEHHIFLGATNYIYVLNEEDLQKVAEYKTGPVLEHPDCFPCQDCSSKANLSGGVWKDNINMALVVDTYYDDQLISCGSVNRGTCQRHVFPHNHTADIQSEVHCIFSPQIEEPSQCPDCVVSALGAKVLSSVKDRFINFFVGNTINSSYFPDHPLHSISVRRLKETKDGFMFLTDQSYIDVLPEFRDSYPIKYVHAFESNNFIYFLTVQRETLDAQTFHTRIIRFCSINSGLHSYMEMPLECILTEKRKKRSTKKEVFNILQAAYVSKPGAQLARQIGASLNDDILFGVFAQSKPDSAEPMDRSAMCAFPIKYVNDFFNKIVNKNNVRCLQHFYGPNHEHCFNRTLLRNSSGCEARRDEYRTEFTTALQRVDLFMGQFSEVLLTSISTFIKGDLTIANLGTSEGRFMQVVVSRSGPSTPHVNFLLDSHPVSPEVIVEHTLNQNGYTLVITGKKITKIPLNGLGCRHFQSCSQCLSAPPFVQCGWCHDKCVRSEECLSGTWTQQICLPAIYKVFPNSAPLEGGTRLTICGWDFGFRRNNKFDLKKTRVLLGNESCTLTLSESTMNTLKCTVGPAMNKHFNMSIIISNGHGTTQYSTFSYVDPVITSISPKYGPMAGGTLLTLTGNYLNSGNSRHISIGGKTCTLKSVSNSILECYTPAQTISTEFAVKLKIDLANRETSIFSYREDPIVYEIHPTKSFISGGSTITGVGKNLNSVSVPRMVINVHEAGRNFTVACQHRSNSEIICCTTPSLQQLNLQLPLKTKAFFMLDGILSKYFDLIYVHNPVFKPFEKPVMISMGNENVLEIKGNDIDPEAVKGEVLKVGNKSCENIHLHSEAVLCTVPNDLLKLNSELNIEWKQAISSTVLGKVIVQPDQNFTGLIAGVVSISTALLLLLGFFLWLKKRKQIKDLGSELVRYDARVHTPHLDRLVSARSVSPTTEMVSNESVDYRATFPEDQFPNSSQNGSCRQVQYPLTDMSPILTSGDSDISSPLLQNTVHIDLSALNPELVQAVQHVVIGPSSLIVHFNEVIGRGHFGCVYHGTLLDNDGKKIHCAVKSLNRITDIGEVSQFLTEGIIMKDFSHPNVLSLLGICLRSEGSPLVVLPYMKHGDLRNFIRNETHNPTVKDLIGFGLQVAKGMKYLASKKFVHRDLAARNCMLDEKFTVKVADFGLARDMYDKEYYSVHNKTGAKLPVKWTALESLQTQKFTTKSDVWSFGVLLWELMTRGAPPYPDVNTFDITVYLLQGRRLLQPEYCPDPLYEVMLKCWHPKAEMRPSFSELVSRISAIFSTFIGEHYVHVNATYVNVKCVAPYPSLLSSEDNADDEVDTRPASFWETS", "assay": "(§1) Selectivity interaction (KinomeScan (DiscoverX)) EUB0000618a MET", "details": "at 10 µM"}, "[4]": {"target": "Hepatocyte growth factor receptor (Homo sapiens, UniProt P08581)", "assay": "as §1", "details": "at 10 µM"}, "[5]": {"system": "Hepatocyte growth factor receptor (Homo sapiens), P08581 [Y1235D]", "sequence (P08581 whole entry Y1235D)": "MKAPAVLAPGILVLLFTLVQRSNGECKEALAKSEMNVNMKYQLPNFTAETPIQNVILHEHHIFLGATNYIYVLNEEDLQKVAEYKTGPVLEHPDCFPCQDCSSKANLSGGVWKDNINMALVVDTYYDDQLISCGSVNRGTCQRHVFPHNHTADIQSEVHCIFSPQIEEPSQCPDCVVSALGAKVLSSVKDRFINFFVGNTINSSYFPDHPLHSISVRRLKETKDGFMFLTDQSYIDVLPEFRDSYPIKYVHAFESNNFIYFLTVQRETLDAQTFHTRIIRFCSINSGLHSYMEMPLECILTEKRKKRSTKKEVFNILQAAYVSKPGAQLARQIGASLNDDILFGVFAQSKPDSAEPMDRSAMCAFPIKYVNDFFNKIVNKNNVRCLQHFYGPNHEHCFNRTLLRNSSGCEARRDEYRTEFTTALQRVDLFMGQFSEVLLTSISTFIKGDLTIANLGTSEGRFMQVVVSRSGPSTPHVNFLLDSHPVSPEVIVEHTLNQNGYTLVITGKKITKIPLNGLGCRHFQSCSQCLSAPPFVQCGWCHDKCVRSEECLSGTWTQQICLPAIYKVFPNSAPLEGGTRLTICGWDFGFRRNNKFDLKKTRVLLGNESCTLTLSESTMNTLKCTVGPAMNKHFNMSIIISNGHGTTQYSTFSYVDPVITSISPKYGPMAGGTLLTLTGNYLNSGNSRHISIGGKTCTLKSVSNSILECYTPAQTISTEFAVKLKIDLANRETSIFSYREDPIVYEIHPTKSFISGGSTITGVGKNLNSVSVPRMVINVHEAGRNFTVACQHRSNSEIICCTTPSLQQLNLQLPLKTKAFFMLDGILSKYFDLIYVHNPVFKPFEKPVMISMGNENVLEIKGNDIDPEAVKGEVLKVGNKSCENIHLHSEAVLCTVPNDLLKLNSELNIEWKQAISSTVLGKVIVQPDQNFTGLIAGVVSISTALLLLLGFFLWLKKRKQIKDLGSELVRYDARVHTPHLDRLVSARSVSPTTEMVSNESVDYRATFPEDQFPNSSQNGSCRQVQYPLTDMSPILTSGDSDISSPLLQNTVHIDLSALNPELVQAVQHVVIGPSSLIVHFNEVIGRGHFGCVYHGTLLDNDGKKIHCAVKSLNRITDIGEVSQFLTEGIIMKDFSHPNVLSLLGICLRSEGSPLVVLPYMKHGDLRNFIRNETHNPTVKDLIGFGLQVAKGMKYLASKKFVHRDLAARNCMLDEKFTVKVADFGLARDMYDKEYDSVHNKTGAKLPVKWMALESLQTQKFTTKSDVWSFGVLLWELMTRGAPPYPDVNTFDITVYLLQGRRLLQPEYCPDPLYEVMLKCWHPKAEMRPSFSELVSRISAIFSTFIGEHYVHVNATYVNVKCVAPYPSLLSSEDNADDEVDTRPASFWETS", "assay": "as §1", "details": "at 10 µM"}, "[6]": {"target": "Tyrosine-protein kinase Srms (Homo sapiens) (UniProt Q9H3Y6)", "assay": "Selectivity interaction (SelectScreen profiling (Invitrogen)) EUB0000607a SRMS", "details": "at 2 µM"}, "[7]": {"target": "Tyrosine-protein kinase BTK (Homo sapiens, UniProt Q06187)", "sequence (Q06187 whole entry)": "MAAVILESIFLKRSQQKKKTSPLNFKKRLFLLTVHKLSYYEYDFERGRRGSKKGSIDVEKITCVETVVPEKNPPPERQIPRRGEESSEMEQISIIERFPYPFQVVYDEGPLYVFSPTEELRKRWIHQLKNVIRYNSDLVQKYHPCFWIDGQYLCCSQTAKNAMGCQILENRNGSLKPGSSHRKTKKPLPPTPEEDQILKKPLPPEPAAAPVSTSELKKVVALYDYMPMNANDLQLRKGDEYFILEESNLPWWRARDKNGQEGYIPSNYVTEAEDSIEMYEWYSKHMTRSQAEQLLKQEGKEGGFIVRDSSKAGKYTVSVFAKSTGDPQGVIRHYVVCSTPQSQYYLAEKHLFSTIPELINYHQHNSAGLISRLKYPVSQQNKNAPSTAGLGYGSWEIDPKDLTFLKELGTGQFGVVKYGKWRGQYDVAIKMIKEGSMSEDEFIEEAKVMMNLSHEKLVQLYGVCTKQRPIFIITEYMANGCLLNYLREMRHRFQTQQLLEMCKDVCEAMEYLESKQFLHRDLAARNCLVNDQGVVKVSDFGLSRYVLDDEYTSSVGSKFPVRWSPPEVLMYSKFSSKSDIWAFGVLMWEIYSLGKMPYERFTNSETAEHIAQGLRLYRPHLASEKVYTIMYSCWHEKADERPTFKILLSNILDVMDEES", "details": "at 1 µM"}, "[8]": {"target": "T1, Mitogen-activated protein kinase kinase kinase kinase 2 (Homo sapiens) (UniProt Q12851)", "T1 sequence (whole entry)": "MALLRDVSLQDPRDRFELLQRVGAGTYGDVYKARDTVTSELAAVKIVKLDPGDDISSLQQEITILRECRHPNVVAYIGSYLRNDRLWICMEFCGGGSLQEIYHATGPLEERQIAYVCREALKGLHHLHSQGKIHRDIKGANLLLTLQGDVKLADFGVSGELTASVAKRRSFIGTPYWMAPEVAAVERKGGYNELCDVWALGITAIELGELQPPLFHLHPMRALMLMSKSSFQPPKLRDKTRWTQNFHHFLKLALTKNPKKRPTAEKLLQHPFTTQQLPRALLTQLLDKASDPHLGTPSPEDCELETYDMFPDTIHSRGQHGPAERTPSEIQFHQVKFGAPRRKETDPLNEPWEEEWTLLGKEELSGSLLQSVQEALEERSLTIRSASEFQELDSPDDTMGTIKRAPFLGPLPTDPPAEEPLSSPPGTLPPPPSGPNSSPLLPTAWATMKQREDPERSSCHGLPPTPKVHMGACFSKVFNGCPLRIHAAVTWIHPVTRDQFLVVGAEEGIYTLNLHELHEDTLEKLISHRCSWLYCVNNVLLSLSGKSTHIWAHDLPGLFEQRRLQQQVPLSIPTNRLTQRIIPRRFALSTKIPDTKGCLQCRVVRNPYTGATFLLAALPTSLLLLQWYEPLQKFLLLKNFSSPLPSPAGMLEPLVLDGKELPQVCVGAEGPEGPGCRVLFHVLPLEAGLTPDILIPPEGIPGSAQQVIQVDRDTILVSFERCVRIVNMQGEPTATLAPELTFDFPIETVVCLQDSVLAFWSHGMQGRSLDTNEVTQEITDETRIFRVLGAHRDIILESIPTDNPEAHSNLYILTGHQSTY", "assay": "Selectivity interaction (ActivX KiNativ screen (kinase selectivity in THP-1 cell lysates)) EUB0000639a MAP4K2", "format": "subcellular", "details": "lysate, at 0.01 µM"}, "[9]": {"target": "T2, Muscarinic acetylcholine receptor M1 (Homo sapiens) (UniProt P11229)", "T2 sequence (whole entry)": "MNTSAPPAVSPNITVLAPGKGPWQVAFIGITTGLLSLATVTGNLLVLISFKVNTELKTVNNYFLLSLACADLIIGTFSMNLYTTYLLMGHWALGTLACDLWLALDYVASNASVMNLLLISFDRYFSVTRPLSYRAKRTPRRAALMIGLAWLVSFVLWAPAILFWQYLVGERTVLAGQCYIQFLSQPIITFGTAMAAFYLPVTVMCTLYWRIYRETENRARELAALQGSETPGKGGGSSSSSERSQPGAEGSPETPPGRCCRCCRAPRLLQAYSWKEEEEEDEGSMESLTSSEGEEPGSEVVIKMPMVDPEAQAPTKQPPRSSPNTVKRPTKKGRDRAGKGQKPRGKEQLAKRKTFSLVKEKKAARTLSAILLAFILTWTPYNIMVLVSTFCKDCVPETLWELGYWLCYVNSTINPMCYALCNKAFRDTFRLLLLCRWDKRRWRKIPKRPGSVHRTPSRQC", "assay": "Selectivity interaction (Panel of kinases, GPCRs, ion channels and transporters (enzymatic assay)) EUB0000266bCl CHRM1"}, "[10]": {"target": "Serine/threonine-protein kinase 25 (Homo sapiens) (UniProt O00506)", "sequence (O00506 whole entry, looked up)": "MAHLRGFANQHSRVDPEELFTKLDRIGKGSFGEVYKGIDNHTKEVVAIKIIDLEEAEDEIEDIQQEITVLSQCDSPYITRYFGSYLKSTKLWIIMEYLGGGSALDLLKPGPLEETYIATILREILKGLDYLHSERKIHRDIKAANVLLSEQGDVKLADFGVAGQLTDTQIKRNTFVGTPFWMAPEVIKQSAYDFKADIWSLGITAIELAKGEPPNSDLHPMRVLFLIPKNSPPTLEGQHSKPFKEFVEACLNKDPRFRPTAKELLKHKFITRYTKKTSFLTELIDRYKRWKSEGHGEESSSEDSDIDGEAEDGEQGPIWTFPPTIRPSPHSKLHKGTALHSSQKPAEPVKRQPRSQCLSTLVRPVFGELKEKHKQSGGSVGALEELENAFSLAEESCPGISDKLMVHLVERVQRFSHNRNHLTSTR", "assay": "Selectivity interaction (KinomeScan (DiscoverX)) EUB0000666a STK25", "details": "at 10 µM"}}}
{"smiles": "Cc1cc(C)cc([C@@H]2c3cc(C)ccc3NC(=O)CN2C(=O)c2ccc(Br)s2)c1", "values": [{"measurement": "% of activity", "setting": "[1]; at 1 µM", "value": 98.3, "unit": "%"}, {"measurement": "% of activity", "setting": "[1]; at 10 µM", "value": 94.3, "unit": "%"}]}
{"smiles": "CN(C)C/C=C/C(=O)Nc1ccc(C(=O)N2CCCC(Nc3ncc(Cl)c(-c4c[nH]c5ccccc45)n3)C2)cc1", "note": "(stereo unspecified)", "values": [{"measurement": "% of control", "setting": "[2]", "value": 88, "unit": "%"}]}
{"smiles": "O[C@H]1CC[C@H](Nc2ncc3nc(Nc4c(F)cc(F)cc4F)n([C@H]4CCOC4)c3n2)CC1", "values": [{"measurement": "% of control", "setting": "[3]", "value": 100, "unit": "%"}, {"measurement": "% of control", "setting": "[4]", "value": 100, "unit": "%"}, {"measurement": "% of control", "setting": "[5]", "value": 100, "unit": "%"}]}
{"smiles": "CNC(=O)Nc1ccc(-c2nc(N3CC4CCC(C3)O4)c3cnn(C4CCC5(CC4)OCCO5)c3n2)cc1", "values": [{"measurement": "% of inhibition", "setting": "[6]", "value": 7, "unit": "%"}]}
{"smiles": "C=CC(=O)Nc1cc(-n2c(=O)ccc3cnc4ccc(-c5ccc(NS(C)(=O)=O)cc5)cc4c32)ccc1C", "values": [{"measurement": "% of control", "setting": "[7]", "value": 1, "unit": "%"}]}
{"smiles": "CC[C@@H]1[C@H](F)C(=O)N[C@@H]1COc1nccc2cc(C(N)=O)c(OC)cc12", "note": "[ZIMLOVISERTIB]", "values": [{"measurement": "% of inhibition", "setting": "[8]", "value": 13.3, "unit": "%"}]}
{"smiles": "CCn1c(-c2nc3cc(C(=O)N4CCCC(N)C4)ccc3n2C)cc2ccccc21", "note": "(stereo unspecified)", "values": [{"measurement": "pXC50", "setting": "[9]", "value": "< 4.8", "unit": "M"}]}
{"smiles": "O=C(NOC[C@H](O)CO)c1ccc(F)c(F)c1Nc1ccc(I)cc1F", "values": [{"measurement": "% of control", "setting": "[10]", "value": 91, "unit": "%"}]}
